Experimental data: US20020137929A1, “1 - (3-heterocyclylphenyl) isothiourea, -isourea, -guanidine and -amidine herbicidal agents” (Intellectual Property Department, BASF Aktiengesellschaft, priority 1998, published 2002)

Tests used:
ZEAMX (Corn, Field) [1] = assay: Preemergence herbicidal evaluation; assay type: in vivo, Zea mays; conditions: rated 4-5 weeks after treatment, rating scale 0-9
How it was run: (§1)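 Scores use a 0–9 visual scale covering stand, vigor, malformation, size and chlorosis relative to controls, rated four to five weeks after treatment. Before emergence, soil-planted seeds were sprayed with compound in aqueous acetone at roughly 0.0156–0.500 kg/ha and held in the greenhouse.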

ABUTH (Velvetleaf) [2] = assay: Postemergence herbicidal evaluation; assay type: in vivo, Abutilon theophrasti; conditions: postemergence
How it was run: (§2)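 Young plants, roughly two weeks from seeding, receive the active ingredient as a sprayed dispersion (acetone/water 50/50, 0.5% TWEEN 20) at 40 psi. Doses span about 0.0156 to 0.500 kg/ha. A visual score from 0 to 9 compares treated with control plants four to five weeks on.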

SETVI (Foxtail, Green) = assay: Postemergence herbicidal evaluation; assay type: in vivo, Setaria viridis; conditions: postemergence
How it was run: as §2

[3] = tested on: TRZAWR (Wheat, Winter, cv Riband); assay: Preemergence herbicidal evaluation; assay type: in vivo, Triticum aestivum; conditions: rated 4-5 weeks after treatment, rating scale 0-9
How it was run: as §1

[4] = tested on: CHEAL (Lambsquarters, Common); assay: Preemergence herbicidal evaluation; assay type: in vivo, Chenopodium album; conditions: rated 4-5 weeks after treatment, rating scale 0-9
How it was run: as §1

ECHCG (Barnyardgrass) [5] = assay: Postemergence herbicidal evaluation; assay type: in vivo, Echinochloa crus-galli; conditions: postemergence
How it was run: as §2

ORYSAT (Rice, Tebonnet) = assay: Postemergence herbicidal evaluation; assay type: in vivo, Oryza sativa, (L.) Tebonnet; conditions: postemergence
How it was run: as §2

ZEAMX (Corn, Field) [6] = assay: Postemergence herbicidal evaluation; assay type: in vivo, Zea mays; conditions: postemergence
How it was run: as §2

[7] = tested on: IPOHE (Morningglory, Ivyleaf); assay: Postemergence herbicidal evaluation; assay type: in vivo, Ipomoea hederacea; conditions: postemergence
How it was run: as §2

ABUTH (Velvetleaf) [8] = assay: Preemergence herbicidal evaluation; assay type: in vivo, Abutilon theophrasti; conditions: rated 4-5 weeks after treatment, rating scale 0-9
How it was run: as §1

CASOB (Sicklepod) = assay: Preemergence herbicidal evaluation; assay type: in vivo, Cassia obtusifolia; conditions: rated 4-5 weeks after treatment, rating scale 0-9
How it was run: as §1

ECHCG (Barnyardgrass) [9] = assay: Preemergence herbicidal evaluation; assay type: in vivo, Echinochloa crus-galli; conditions: rated 4-5 weeks after treatment, rating scale 0-9
How it was run: as §1

[10] = tested on: CHEAL (Lambsquarters, Common); assay: Postemergence herbicidal evaluation; assay type: in vivo, Chenopodium album; conditions: postemergence
How it was run: as §2

[11] = tested on: GLXMAW (Soybean, Williams); assay: Preemergence herbicidal evaluation; assay type: in vivo, Glycine max, (L.) Merr. cv Williams; conditions: rated 4-5 weeks after treatment, rating scale 0-9
How it was run: as §1

[12] = tested on: IPOHE (Morningglory, Ivyleaf); assay: Preemergence herbicidal evaluation; assay type: in vivo, Ipomoea hederacea; conditions: rated 4-5 weeks after treatment, rating scale 0-9
How it was run: as §1

Cn1c(C(F)(F)F)cc(=O)n(-c2cc(N=C3SCC(=O)N3C3CC3)c(Cl)cc2F)c1=O [Compound 152, 3-{4-Chloro-5-[(3-cyclopropyl-4-oxo-2-thiazolidinylidene)amino]-2-fluorophenyl}-1-methyl-6-(trifluoromethyl)-2,4(1H,3H)-pyrimidinedione]
Preemergence herbicidal rating ZEAMX (ZEAMX (Corn, Field) [1]; rate 0.0313 kg/ha): 0.0 | Preemergence herbicidal rating ZEAMX (ZEAMX (Corn, Field) [1]; rate 0.0625 kg/ha): 1.0 | Preemergence herbicidal rating ZEAMX (ZEAMX (Corn, Field) [1]; rate 0.1250 kg/ha): 1.0 | Preemergence herbicidal rating ZEAMX (ZEAMX (Corn, Field) [1]; rate 0.2500 kg/ha): 2.0 | herbicidal rating ABUTH (ABUTH (Velvetleaf) [2]; rate 0.0156 kg/ha): 6.0 | herbicidal rating ABUTH (ABUTH (Velvetleaf) [2]; rate 0.0313 kg/ha): 4.0 | herbicidal rating ABUTH (ABUTH (Velvetleaf) [2]; rate 0.0625 kg/ha): 9.0 | herbicidal rating SETVI (SETVI (Foxtail, Green); rate 0.0156 kg/ha): 0.0 | herbicidal rating SETVI (SETVI (Foxtail, Green); rate 0.0313 kg/ha): 3.0 | herbicidal rating SETVI (SETVI (Foxtail, Green); rate 0.0625 kg/ha): 3.0 | Preemergence herbicidal rating TRZAWR ([3]; rate 0.0313 kg/ha): 0.0 | Preemergence herbicidal rating TRZAWR ([3]; rate 0.0625 kg/ha): 1.0 | Preemergence herbicidal rating TRZAWR ([3]; rate 0.1250 kg/ha): 1.0 | Preemergence herbicidal rating TRZAWR ([3]; rate 0.2500 kg/ha): 1.0 | Preemergence herbicidal rating CHEAL ([4]; rate 0.0313 kg/ha): 2.0 | Preemergence herbicidal rating CHEAL ([4]; rate 0.0625 kg/ha): 9.0 | Preemergence herbicidal rating CHEAL ([4]; rate 0.1250 kg/ha): 9.0 | Preemergence herbicidal rating CHEAL ([4]; rate 0.2500 kg/ha): 9.0 | herbicidal rating ECHCG (ECHCG (Barnyardgrass) [5]; rate 0.0156 kg/ha): 1.0 | herbicidal rating ECHCG (ECHCG (Barnyardgrass) [5]; rate 0.0313 kg/ha): 2.0 | herbicidal rating ECHCG (ECHCG (Barnyardgrass) [5]; rate 0.0625 kg/ha): 2.0 | herbicidal rating ORYSAT (ORYSAT (Rice, Tebonnet); rate 0.0156 kg/ha): 1.5 | herbicidal rating ORYSAT (ORYSAT (Rice, Tebonnet); rate 0.0313 kg/ha): 2.0 | herbicidal rating ORYSAT (ORYSAT (Rice, Tebonnet); rate 0.0625 kg/ha): 3.0 | herbicidal rating ZEAMX (ZEAMX (Corn, Field) [6]; rate 0.0156 kg/ha): 4.0 | herbicidal rating ZEAMX (ZEAMX (Corn, Field) [6]; rate 0.0313 kg/ha): 5.0 | herbicidal rating ZEAMX (ZEAMX (Corn, Field) [6]; rate 0.0625 kg/ha): 6.5 | herbicidal rating IPOHE ([7]; rate 0.0156 kg/ha): 7.0 | herbicidal rating IPOHE ([7]; rate 0.0313 kg/ha): 9.0 | herbicidal rating IPOHE ([7]; rate 0.0625 kg/ha): 9.0 | Preemergence herbicidal rating ABUTH (ABUTH (Velvetleaf) [8]; rate 0.0313 kg/ha): 0.0 | Preemergence herbicidal rating ABUTH (ABUTH (Velvetleaf) [8]; rate 0.0625 kg/ha): 0.0 | Preemergence herbicidal rating ABUTH (ABUTH (Velvetleaf) [8]; rate 0.1250 kg/ha): 9.0 | Preemergence herbicidal rating ABUTH (ABUTH (Velvetleaf) [8]; rate 0.2500 kg/ha): 9.0 | Preemergence herbicidal rating CASOB (CASOB (Sicklepod); rate 0.0313 kg/ha): 0.0 | Preemergence herbicidal rating CASOB (CASOB (Sicklepod); rate 0.0625 kg/ha): 1.0 | Preemergence herbicidal rating CASOB (CASOB (Sicklepod); rate 0.1250 kg/ha): 0.0 | Preemergence herbicidal rating CASOB (CASOB (Sicklepod); rate 0.2500 kg/ha): 3.0 | Preemergence herbicidal rating ECHCG (ECHCG (Barnyardgrass) [9]; rate 0.0313 kg/ha): 0.0 | Preemergence herbicidal rating ECHCG (ECHCG (Barnyardgrass) [9]; rate 0.0625 kg/ha): 0.0 | Preemergence herbicidal rating ECHCG (ECHCG (Barnyardgrass) [9]; rate 0.1250 kg/ha): 1.0 | Preemergence herbicidal rating ECHCG (ECHCG (Barnyardgrass) [9]; rate 0.2500 kg/ha): 1.0 | herbicidal rating CHEAL ([10]; rate 0.0156 kg/ha): 0.0 | herbicidal rating CHEAL ([10]; rate 0.0313 kg/ha): 4.0 | herbicidal rating CHEAL ([10]; rate 0.0625 kg/ha): 9.0 | Preemergence herbicidal rating GLXMAW ([11]; rate 0.0313 kg/ha): 0.0 | Preemergence herbicidal rating GLXMAW ([11]; rate 0.0625 kg/ha): 2.0 | Preemergence herbicidal rating GLXMAW ([11]; rate 0.1250 kg/ha): 2.0 | Preemergence herbicidal rating GLXMAW ([11]; rate 0.2500 kg/ha): 2.0 | Preemergence herbicidal rating IPOHE ([12]; rate 0.0313 kg/ha): 0.0 | Preemergence herbicidal rating IPOHE ([12]; rate 0.0625 kg/ha): 1.0 | Preemergence herbicidal rating IPOHE ([12]; rate 0.1250 kg/ha): 4.0 | Preemergence herbicidal rating IPOHE ([12]; rate 0.2500 kg/ha): 7.0

COCCN1C(=O)CSC1=Nc1cc(-n2c(=O)cc(C(F)(F)F)n(C)c2=O)c(F)cc1Cl [Compound 155, 3-{4-Chloro-2-fluoro-5-{[3-(2-methoxyethyl)-4-oxo-2-thiazolidinylidene]amino}phenyl}-1-methyl-6-(trifluoromethyl)-2,4(1H,3H)-pyrimidinedione]
Preemergence herbicidal rating ZEAMX (ZEAMX (Corn, Field) [1]; rate 0.0625 kg/ha): 0.0 | Preemergence herbicidal rating ZEAMX (ZEAMX (Corn, Field) [1]; rate 0.1250 kg/ha): 0.0 | Preemergence herbicidal rating ZEAMX (ZEAMX (Corn, Field) [1]; rate 0.2500 kg/ha): 2.0 | herbicidal rating ABUTH (ABUTH (Velvetleaf) [2]; rate 0.0156 kg/ha): 3.0 | herbicidal rating ABUTH (ABUTH (Velvetleaf) [2]; rate 0.0313 kg/ha): 9.0 | herbicidal rating ABUTH (ABUTH (Velvetleaf) [2]; rate 0.0625 kg/ha): 9.0 | herbicidal rating SETVI (SETVI (Foxtail, Green); rate 0.0156 kg/ha): 0.0 | herbicidal rating SETVI (SETVI (Foxtail, Green); rate 0.0313 kg/ha): 0.0 | herbicidal rating SETVI (SETVI (Foxtail, Green); rate 0.0625 kg/ha): 0.0 | Preemergence herbicidal rating TRZAWR ([3]; rate 0.0625 kg/ha): 0.0 | Preemergence herbicidal rating TRZAWR ([3]; rate 0.1250 kg/ha): 0.0 | Preemergence herbicidal rating TRZAWR ([3]; rate 0.2500 kg/ha): 0.0 | Preemergence herbicidal rating CHEAL ([4]; rate 0.0625 kg/ha): 0.0 | Preemergence herbicidal rating CHEAL ([4]; rate 0.1250 kg/ha): 9.0 | Preemergence herbicidal rating CHEAL ([4]; rate 0.2500 kg/ha): 9.0 | herbicidal rating ECHCG (ECHCG (Barnyardgrass) [5]; rate 0.0156 kg/ha): 0.0 | herbicidal rating ECHCG (ECHCG (Barnyardgrass) [5]; rate 0.0313 kg/ha): 0.0 | herbicidal rating ECHCG (ECHCG (Barnyardgrass) [5]; rate 0.0625 kg/ha): 0.0 | herbicidal rating ORYSAT (ORYSAT (Rice, Tebonnet); rate 0.0156 kg/ha): 0.0 | herbicidal rating ORYSAT (ORYSAT (Rice, Tebonnet); rate 0.0313 kg/ha): 0.0 | herbicidal rating ORYSAT (ORYSAT (Rice, Tebonnet); rate 0.0625 kg/ha): 0.0 | herbicidal rating ZEAMX (ZEAMX (Corn, Field) [6]; rate 0.0156 kg/ha): 4.0 | herbicidal rating ZEAMX (ZEAMX (Corn, Field) [6]; rate 0.0313 kg/ha): 4.0 | herbicidal rating ZEAMX (ZEAMX (Corn, Field) [6]; rate 0.0625 kg/ha): 4.0 | herbicidal rating IPOHE ([7]; rate 0.0156 kg/ha): 2.0 | herbicidal rating IPOHE ([7]; rate 0.0313 kg/ha): 4.0 | herbicidal rating IPOHE ([7]; rate 0.0625 kg/ha): 9.0 | Preemergence herbicidal rating ABUTH (ABUTH (Velvetleaf) [8]; rate 0.0625 kg/ha): 2.0 | Preemergence herbicidal rating ABUTH (ABUTH (Velvetleaf) [8]; rate 0.1250 kg/ha): 4.0 | Preemergence herbicidal rating ABUTH (ABUTH (Velvetleaf) [8]; rate 0.2500 kg/ha): 7.0 | Preemergence herbicidal rating CASOB (CASOB (Sicklepod); rate 0.0625 kg/ha): 0.0 | Preemergence herbicidal rating CASOB (CASOB (Sicklepod); rate 0.1250 kg/ha): 0.0 | Preemergence herbicidal rating CASOB (CASOB (Sicklepod); rate 0.2500 kg/ha): 0.0 | Preemergence herbicidal rating ECHCG (ECHCG (Barnyardgrass) [9]; rate 0.0625 kg/ha): 0.0 | Preemergence herbicidal rating ECHCG (ECHCG (Barnyardgrass) [9]; rate 0.1250 kg/ha): 0.0 | Preemergence herbicidal rating ECHCG (ECHCG (Barnyardgrass) [9]; rate 0.2500 kg/ha): 0.0 | herbicidal rating CHEAL ([10]; rate 0.0156 kg/ha): 0.0 | herbicidal rating CHEAL ([10]; rate 0.0313 kg/ha): 0.0 | herbicidal rating CHEAL ([10]; rate 0.0625 kg/ha): 0.0 | Preemergence herbicidal rating GLXMAW ([11]; rate 0.0625 kg/ha): 0.0 | Preemergence herbicidal rating GLXMAW ([11]; rate 0.1250 kg/ha): 0.0 | Preemergence herbicidal rating GLXMAW ([11]; rate 0.2500 kg/ha): 4.0 | Preemergence herbicidal rating IPOHE ([12]; rate 0.0625 kg/ha): 0.0 | Preemergence herbicidal rating IPOHE ([12]; rate 0.1250 kg/ha): 0.0 | Preemergence herbicidal rating IPOHE ([12]; rate 0.2500 kg/ha): 2.0
